Data reported in patent publication US8946478B2, “Benzamide derivative with anticancer activity and preparation method and use thereof” (Zhejiang Hisun Pharmaceutical Co., Ltd., priority 2010, dated 2015).

Experiments:
[1] = system: human lung cancer cell strain NCI-460; assay: In vitro SRB tumor cell growth inhibition (GI50); format: cell-based; conditions: Homo sapiens, NCI-460, 48 h, NCI-460 cells
Experimental: (§1) Human colon cancer cell strains (Colo205 and HCT-116), human breast cancer cell strains (MCF-7 and MDA-MB435), human lung cancer cell strains (A549, 95D and NCI460), human ovarian cancer cell strains (OVCAR-5, OVCAR-8, HO8910 and SKOV-3), human leukemia (HL-60 and K562), human prostate cancer (DU145 and BXPC-3), human uterine cancer (Hela), human pancreatic cancer (PANC-1), human hepatoma (HepG 2) were all obtained from ATCC. Colo205, HL-60, K562 cells were cultured in RPMI 1640 containing 2 mM/L glutamine, 10% FBS, 1.0 mM sodium pyruvate. HCT-116, MCF-7, A549, 95D, HO8910, NCI460, OVCAR-5, OVCAR-8, DU145, BXPC-3, Hela, PANC-1, HepG2 cells were cultured in DMEM containing 2 mM/L glutamine, 10% FBS. MDA-MB435 cells were cultured in L-15 containing 2 mM/L glutamine, 10% FBS. SKOV-3 cells were cultured in McCoy's containing 2 mM/L glutamine, 10% FBS. Colo205, HL-60 and K562 cells were seeded in 96-well plates, 150 μL/well and 8000 cells/well, and the 96-well plates were pre-incubated in an incubator at 37° C. with 5% CO2, 100% relative humidity for 24 hours. HCT-116, MCF-7, NCI460, OVCAR-5, OVCAR-8, Hela, HepG 2 and MDA-MB435 cells were seeded in 96-well plates, 5000 cells/well; A549, 95D, HO8910, DU145, BXPC-3, PANC-1 and SKOV-3 cells were seeded in 96-well plates, 10000 cells/well, and the 96-well plates were pre-incubated in an incubator at 37° C. with 5% CO2, 100% relative humidity for 24 hours, to allow the cells to adhere.
(§2) 50 μL of pre-cooled 50% (mass/volume) TCA was added into the time zero control wells for each cell strain to fix the cells. To other wells, 50 μL of various concentrations of compounds were added, and maintained for 48 h, wherein each drug concentration was in triplicate, and there were blank control wells (cell culture medium without cells), drug-free control wells (with no drugs but the same volume of complete medium) and positive drug BSI-201 control wells, and the plates were incubated in an incubator at 37° C. with 5% CO2, full humidity (100% relative humidity) for 48 hours
(§3) 50 μL pre-cooled 50% (mass/volume) TCA was added onto the surface of the culture medium to fix the cells, which was then placed at 4° C. for 1 h. The supernatant was removed and each well was washed with deionized water for 5 times to remove TCA, serum proteins, etc. After dried in the air, about 100 μL enough amount of 0.4% SRB (formulated with 1% acetic acid) was added into each well, and was placed at room temperature for 20 to 30 min. Liquid in each well was discarded and each well was rapidly washed with 1% acetic acid for five times, to remove unbound dye until the unbound dye was completely rinsed clean. After dried in the air until the moisture was invisible, each well was added 200 μL Tris base to dissolve, shaken on a plate oscillator for 5 min or mixed by beating up and down with a pipette tip, and then measured on the multi-function instruction (M5 Detection System, MD Group Ltd.) with a detection wavelength of 515 nm, zero adjusted with 690 nm blank control.
(§4) The dose-response curve was plotted by XL-fit to determine the GI50 value.

[2] = system: human ovarian cancer cell strain OVCAR-5; assay: In vitro SRB tumor cell growth inhibition (GI50); format: cell-based; conditions: OVCAR-5 cells, 48 h
Experimental: as §1, §2, §3, §4

[3] = system: human ovarian cancer cell strain HO8910; assay: In vitro SRB tumor cell growth inhibition (GI50); format: cell-based; conditions: HO-8910, HO8910 cells, 48 h
Experimental: as §1, §2, §3, §4

[4] = system: human ovarian cancer cell strain SKOV-3; assay: In vitro SRB tumor cell growth inhibition (GI50); format: cell-based; conditions: SK-OV-3, SKOV-3 cells, 48 h
Experimental: as §1, §2, §3, §4

human leukemia K562 = assay: In vitro SRB tumor cell growth inhibition (GI50); format: cell-based; conditions: Homo sapiens, K562, 48 h, K562 cells
Experimental: as §1, §2, §3, §4

[5] = system: human breast cancer cell strain MCF-7; assay: In vitro SRB tumor cell growth inhibition (GI50); format: cell-based; conditions: Homo sapiens, MCF7, 48 h, MCF-7 cells
Experimental: as §1, §2, §3, §4

[6] = system: human prostate cancer DU145; assay: In vitro SRB tumor cell growth inhibition (GI50); format: cell-based; conditions: Homo sapiens, DU-145, 48 h, DU145 cells
Experimental: as §1, §2, §3, §4

human leukemia HL-60 = assay: In vitro SRB tumor cell growth inhibition (GI50); format: cell-based; conditions: Homo sapiens, HL-60, 48 h, HL-60 cells
Experimental: as §1, §2, §3, §4

[7] = system: human uterine cancer Hela; assay: In vitro SRB tumor cell growth inhibition (GI50); format: cell-based; conditions: Homo sapiens, HeLa, 48 h, Hela cells
Experimental: as §1, §2, §3, §4

[8] = system: human ovarian cancer cell strain OVCAR-8; assay: In vitro SRB tumor cell growth inhibition (GI50); format: cell-based; conditions: Homo sapiens, OVCAR-8, 48 h, OVCAR-8 cells
Experimental: as §1, §2, §3, §4

[9] = system: human prostate cancer BXPC-3; assay: In vitro SRB tumor cell growth inhibition (GI50); format: cell-based; conditions: BXPC-3 cells, 48 h
Experimental: as §1, §2, §3, §4

[10] = system: human colon cancer cell strain Colo205; assay: In vitro SRB tumor cell growth inhibition (GI50); format: cell-based; conditions: Colo 205 cells, 48 h
Experimental: as §1, §2, §3, §4

[11] = system: human lung cancer cell strain A549; assay: In vitro SRB tumor cell growth inhibition (GI50); format: cell-based; conditions: A549 cells, 48 h
Experimental: as §1, §2, §3, §4

[12] = system: human breast cancer cell strain MDA-MB435; assay: In vitro SRB tumor cell growth inhibition (GI50); format: cell-based; conditions: Homo sapiens, MDA-MB-435, 48 h, MDA-MB435 cells
Experimental: as §1, §2, §3, §4

[13] = system: human pancreatic cancer PANC-1; assay: In vitro SRB tumor cell growth inhibition (GI50); format: cell-based; conditions: Homo sapiens, PANC-1, 48 h, PANC-1 cells
Experimental: as §1, §2, §3, §4

[14] = system: human lung cancer cell strain 95D; assay: In vitro SRB tumor cell growth inhibition (GI50); format: cell-based; conditions: Homo sapiens, 95-D, 48 h, 95D cells
Experimental: as §1, §2, §3, §4

human hepatoma HepG 2 = assay: In vitro SRB tumor cell growth inhibition (GI50); format: cell-based; conditions: HepG2, HepG 2 cells, 48 h
Experimental: as §1, §2, §3, §4

[15] = system: human colon cancer cell strain HCT-116; assay: In vitro SRB tumor cell growth inhibition (GI50); format: cell-based; conditions: Homo sapiens, HCT-116, 48 h, HCT-116 cells
Experimental: as §1, §2, §3, §4

18 tumor cell strains = assay: In vitro efficacy screening, summary over the tumor cell strains; format: cell-based, human; conditions: in vitro screening; for inhibitory effects on tumor cell proliferation (in words): BSI-201 as positive drug
Experimental: as §1, §2, §3, §4

C#Cc1ccc(C(=O)N2CCCCC2)cc1[N+](=O)[O-] [Compound I-21, (4-ethynyl-3-nitrophenyl)(piperidin-1-yl)ketone]
GI50 [1]: 5.86 µM
GI50 [2]: 17.5 µM
GI50 [3]: 4.34 µM
GI50 [4]: 22.5 µM
GI50 (human leukemia K562): 1.77 µM
GI50 [5]: 16.1 µM
GI50 [6]: 2.24 µM
GI50 (human leukemia HL-60): 2.87 µM
GI50 [7]: 4.17 µM
GI50 [8]: 1.64 µM
GI50 [9]: 3.91 µM
GI50 [10]: 1.52 µM
GI50 [11]: 17.9 µM
GI50 [12]: 5.86 µM
GI50 [13]: 12.5 µM
GI50 [14]: 14.5 µM
GI50 (human hepatoma HepG 2): 16 µM
GI50 [15]: 8.44 µM
efficacy in inhibition of tumor cell proliferation, graded in words against I-1 (18 tumor cell strains): slightly lower than that of I-1
inhibitory effects on tumor cell proliferation (in words) (18 tumor cell strains): have inhibitory effects on tumor cell proliferation

C#Cc1ccc(C(=O)NCC)cc1[N+](=O)[O-] [Compound I-17, N-ethyl-4-ethynyl-3-nitrobenzamide]
GI50 [1]: 14 µM
GI50 [2]: 16.1 µM
GI50 [3]: 3.34 µM
GI50 [4]: 8.4 µM
GI50 (human leukemia K562): 2.59 µM
GI50 [5]: 10.6 µM
GI50 [6]: 2.99 µM
GI50 (human leukemia HL-60): 2.62 µM
GI50 [7]: 4.43 µM
GI50 [8]: 4.6 µM
GI50 [9]: 4.79 µM
GI50 [10]: 3.21 µM
GI50 [11]: 12.2 µM
GI50 [12]: 2.76 µM
GI50 [13]: 12.4 µM
GI50 [14]: 10.3 µM
GI50 (human hepatoma HepG 2): 5.85 µM
GI50 [15]: 5.06 µM
efficacy in inhibition of tumor cell proliferation, graded in words against I-1 (18 tumor cell strains): slightly lower than that of I-1
inhibitory effects on tumor cell proliferation (in words) (18 tumor cell strains): have inhibitory effects on tumor cell proliferation

C#Cc1ccc(C(=O)N(CC)CC)cc1[N+](=O)[O-] [Compound I-14, N,N-diethyl-4-ethynyl-3-nitrobenzamide]
GI50 [1]: 20.9 µM
GI50 [2]: 20.9 µM
GI50 [3]: 5 µM
GI50 [4]: 10.3 µM
GI50 (human leukemia K562): 4.52 µM
GI50 [5]: 20.1 µM
GI50 [6]: 4.17 µM
GI50 (human leukemia HL-60): 1.99 µM
GI50 [7]: 6.7 µM
GI50 [8]: 3.64 µM
GI50 [9]: 4.9 µM
GI50 [10]: 2.79 µM
GI50 [11]: 17.6 µM
GI50 [12]: 1.01 µM
GI50 [13]: 19.9 µM
GI50 [14]: 16.8 µM
GI50 (human hepatoma HepG 2): 4.27 µM
GI50 [15]: 11.2 µM
efficacy in inhibition of tumor cell proliferation, graded in words against I-1 (18 tumor cell strains): slightly lower than that of I-1
inhibitory effects on tumor cell proliferation (in words) (18 tumor cell strains): have inhibitory effects on tumor cell proliferation
